Measurements reported in article PMC5290327, “SC83288 is a clinical development candidate for the treatment of severe malaria” (Nature Communications, 2017).

What was measured:
Assay in all cases: KINOMEscan
Format in all cases: binding
Details in all cases: read-out: Remaining enzyme activity
ABL1 = target: T1, ABL1 (Homo sapiens, UniProt P00519)
T1 construct: purchased Ambit (DiscoverX) KINOMEscan; Cerep
Protocol: (§1) The KINOMEscan was carried out by Ambit (San Diego, USA) according to a previously established protocol. The experiment was based on a competition binding assay that quantitatively measures the ability of a compound to compete with an immobilized, active-site directed ligand. The assay is performed by combining three components: DNA-tagged kinase; immobilized ligand; and a test compound. The ability of the test compound to compete with the immobilized ligand is measured via quantitative PCR of the DNA tag.
(§2) For most assays, kinase-tagged T7 phage strains were grown in parallel in 24-well blocks in an Escherichia coli host derived from the BL21 strain. E. coli were grown to log-phase and infected with T7 phage from a frozen stock and incubated with shaking at 32 °C until lysis (90–150 min). The lysates were centrifuged (6,000g) and filtered (0.2 μm) to remove cell debris. The remaining kinases were produced in HEK-293 cells (Sigma Aldrich, catalogue number: 85120602) and subsequently tagged with DNA for quantitative PCR detection. […] The liganded beads were blocked with excess biotin and washed with blocking buffer (SeaBlock (Pierce), 1% bovine serum albumin, 0.05% Tween 20 and 1 mM dithiothreitol) to remove unbound ligand and to reduce non-specific phage binding. […] SC81458 was prepared as 40x stock in 100% DMSO and directly diluted into the assay to a final concentration of 10 μM. All reactions were performed in polypropylene 384-well plates in a final volume of 0.04 ml. […] The kinase concentration in the eluates was measured by quantitative PCR.

FGFR2 = target: T2, FGFR2 (Homo sapiens, UniProt P21802)
T2 construct: purchased Ambit (DiscoverX) KINOMEscan; Cerep
Protocol: as §1, §2

PRKCH = target: T3, PRKCH (Homo sapiens, UniProt P24723)
T3 construct: purchased Ambit (DiscoverX) KINOMEscan; Cerep
Protocol: as §1, §2

PKMYT1 = target: T4, PKMYT1 (Homo sapiens, UniProt Q99640)
T4 construct: purchased Ambit (DiscoverX) KINOMEscan; Cerep
Protocol: as §1, §2

CIT = target: T5, CIT (Homo sapiens, UniProt O14578)
T5 construct: purchased Ambit (DiscoverX) KINOMEscan; Cerep
Protocol: as §1, §2

CSNK2a2 = target: T6, CSNK2a2 (Homo sapiens, UniProt P19784)
T6 construct: purchased Ambit (DiscoverX) KINOMEscan; Cerep
Protocol: as §1, §2

KIT(V559D, V654A) = target: T7, KIT(V559D, V654A) (Homo sapiens, UniProt P10721, V559D/V654A)
T7 construct: purchased Ambit (DiscoverX) KINOMEscan; Cerep
Protocol: as §1, §2

PCTk3 = target: T8, PCTk3 (Homo sapiens, UniProt Q07002)
T8 construct: purchased Ambit (DiscoverX) KINOMEscan; Cerep
Protocol: as §1, §2

[1] = target: T9, JAK3(JH1domain-catalytic) (Homo sapiens, UniProt P52333)
T9 construct: JAK3(JH1domain-catalytic); purchased Ambit (DiscoverX) KINOMEscan; Cerep
Protocol: as §1, §2

TESK1 = target: T10, TESK1 (Homo sapiens, UniProt Q15569)
T10 construct: purchased Ambit (DiscoverX) KINOMEscan; Cerep
Protocol: as §1, §2

FGFR1 = target: T11, FGFR1 (Homo sapiens, UniProt P11362)
T11 construct: purchased Ambit (DiscoverX) KINOMEscan; Cerep
Protocol: as §1, §2

ABL1(Y253F) = target: T12, ABL1(Y253F) (Homo sapiens, UniProt P00519, Y253F)
T12 construct: purchased Ambit (DiscoverX) KINOMEscan; Cerep
Protocol: as §1, §2

PIK3CA(Q546K) = target: T13, PIK3CA(Q546K) (Homo sapiens, UniProt P42336, Q546K)
T13 construct: purchased Ambit (DiscoverX) KINOMEscan; Cerep
Protocol: as §1, §2

LKB1 = target: T14, LKB1 (Homo sapiens, UniProt Q15831)
T14 construct: purchased Ambit (DiscoverX) KINOMEscan; Cerep
Protocol: as §1, §2

INSRR = target: T15, INSRR (Homo sapiens, UniProt P14616)
T15 construct: purchased Ambit (DiscoverX) KINOMEscan; Cerep
Protocol: as §1, §2

RIPK4 = target: T16, RIPK4 (Homo sapiens, UniProt P57078)
T16 construct: purchased Ambit (DiscoverX) KINOMEscan; Cerep
Protocol: as §1, §2

ERK4 = target: T17, ERK4 (Homo sapiens, UniProt P31152)
T17 construct: purchased Ambit (DiscoverX) KINOMEscan; Cerep
Protocol: as §1, §2

[2] = target: T18, JAK1(JH1domain-catalytic) (Homo sapiens, UniProt P23458)
T18 construct: JAK1(JH1domain-catalytic); purchased Ambit (DiscoverX) KINOMEscan; Cerep
Protocol: as §1, §2

DRAK2 = target: T19, DRAK2 (Homo sapiens, UniProt O94768)
T19 construct: purchased Ambit (DiscoverX) KINOMEscan; Cerep
Protocol: as §1, §2

MKNK2 = target: T20, MKNK2 (Homo sapiens, UniProt Q9HBH9)
T20 construct: purchased Ambit (DiscoverX) KINOMEscan; Cerep
Protocol: as §1, §2

PRKD1 = target: T21, PRKD1 (Homo sapiens, UniProt Q15139)
T21 construct: purchased Ambit (DiscoverX) KINOMEscan; Cerep
Protocol: as §1, §2

NEK5 = target: T22, NEK5 (Homo sapiens, UniProt Q6P3R8)
T22 construct: purchased Ambit (DiscoverX) KINOMEscan; Cerep
Protocol: as §1, §2

TRKc = target: T23, TRKc (Homo sapiens, UniProt Q16288)
T23 construct: purchased Ambit (DiscoverX) KINOMEscan; Cerep
Protocol: as §1, §2

LIMK2 = target: T24, LIMK2 (Homo sapiens, UniProt P53671)
T24 construct: purchased Ambit (DiscoverX) KINOMEscan; Cerep
Protocol: as §1, §2

MEK2 = target: T25, MEK2 (Homo sapiens, UniProt P36507)
T25 construct: purchased Ambit (DiscoverX) KINOMEscan; Cerep
Protocol: as §1, §2

PRP4 = target: T26, PRP4 (Homo sapiens, UniProt Q13523)
T26 construct: purchased Ambit (DiscoverX) KINOMEscan; Cerep
Protocol: as §1, §2

p38-alpha = target: T27, p38-alpha (Homo sapiens, UniProt Q16539)
T27 construct: purchased Ambit (DiscoverX) KINOMEscan; Cerep
Protocol: as §1, §2

CHEK1 = target: T28, CHEK1 (Homo sapiens, UniProt O14757)
T28 construct: purchased Ambit (DiscoverX) KINOMEscan; Cerep
Protocol: as §1, §2

MEK4 = target: T29, MEK4 (Homo sapiens, UniProt P45985)
T29 construct: purchased Ambit (DiscoverX) KINOMEscan; Cerep
Protocol: as §1, §2

NEK6 = target: T30, NEK6 (Homo sapiens, UniProt Q9HC98)
T30 construct: purchased Ambit (DiscoverX) KINOMEscan; Cerep
Protocol: as §1, §2

ADCK3 = target: T31, ADCK3 (Homo sapiens, UniProt Q8NI60)
T31 construct: purchased Ambit (DiscoverX) KINOMEscan; Cerep
Protocol: as §1, §2

CDKL2 = target: T32, CDKL2 (Homo sapiens, UniProt Q92772)
T32 construct: purchased Ambit (DiscoverX) KINOMEscan; Cerep
Protocol: as §1, §2

PDGFRa = target: T33, PDGFRa (Homo sapiens, UniProt P16234)
T33 construct: purchased Ambit (DiscoverX) KINOMEscan; Cerep
Protocol: as §1, §2

T13 sequence (P42336 whole entry Q546K): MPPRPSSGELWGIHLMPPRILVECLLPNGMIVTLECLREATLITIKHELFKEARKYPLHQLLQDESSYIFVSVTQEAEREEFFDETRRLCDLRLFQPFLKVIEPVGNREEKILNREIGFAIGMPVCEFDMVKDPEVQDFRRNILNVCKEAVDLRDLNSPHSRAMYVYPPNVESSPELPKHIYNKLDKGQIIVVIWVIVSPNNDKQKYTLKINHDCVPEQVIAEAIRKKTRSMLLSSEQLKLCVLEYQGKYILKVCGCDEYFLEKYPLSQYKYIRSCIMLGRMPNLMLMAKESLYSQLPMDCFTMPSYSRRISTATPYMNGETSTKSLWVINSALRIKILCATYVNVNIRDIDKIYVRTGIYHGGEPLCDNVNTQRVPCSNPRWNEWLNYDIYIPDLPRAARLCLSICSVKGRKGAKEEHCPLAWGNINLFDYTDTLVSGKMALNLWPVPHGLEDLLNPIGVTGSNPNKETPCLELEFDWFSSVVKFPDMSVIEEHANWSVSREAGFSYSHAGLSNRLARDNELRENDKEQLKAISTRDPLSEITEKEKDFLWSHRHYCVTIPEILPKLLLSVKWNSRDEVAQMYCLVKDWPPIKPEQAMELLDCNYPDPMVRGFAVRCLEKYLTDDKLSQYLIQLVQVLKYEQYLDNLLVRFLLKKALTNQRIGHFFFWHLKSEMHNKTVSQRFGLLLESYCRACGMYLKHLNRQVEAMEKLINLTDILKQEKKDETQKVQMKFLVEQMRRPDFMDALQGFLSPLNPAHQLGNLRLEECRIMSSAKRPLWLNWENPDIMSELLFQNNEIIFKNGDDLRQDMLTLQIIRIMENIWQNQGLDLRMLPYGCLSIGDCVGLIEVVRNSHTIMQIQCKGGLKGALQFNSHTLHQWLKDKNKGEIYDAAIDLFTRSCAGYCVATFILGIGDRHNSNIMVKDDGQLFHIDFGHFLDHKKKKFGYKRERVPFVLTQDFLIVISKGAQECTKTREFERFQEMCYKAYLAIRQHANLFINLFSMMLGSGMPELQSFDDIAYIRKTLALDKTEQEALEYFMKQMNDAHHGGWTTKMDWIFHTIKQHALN
T14 sequence (Q15831 whole entry): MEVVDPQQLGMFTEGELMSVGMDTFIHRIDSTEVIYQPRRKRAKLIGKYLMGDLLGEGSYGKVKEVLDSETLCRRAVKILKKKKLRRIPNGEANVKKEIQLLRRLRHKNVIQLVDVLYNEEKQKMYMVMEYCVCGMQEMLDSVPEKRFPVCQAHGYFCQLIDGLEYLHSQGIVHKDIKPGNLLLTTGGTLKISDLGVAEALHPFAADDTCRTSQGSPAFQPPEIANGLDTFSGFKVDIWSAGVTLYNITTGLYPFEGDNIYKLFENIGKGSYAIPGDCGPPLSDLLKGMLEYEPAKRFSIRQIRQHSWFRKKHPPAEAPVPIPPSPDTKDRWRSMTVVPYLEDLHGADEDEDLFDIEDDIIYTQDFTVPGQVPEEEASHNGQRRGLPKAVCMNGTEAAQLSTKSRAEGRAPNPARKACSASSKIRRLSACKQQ
T20 sequence (Q9HBH9 whole entry): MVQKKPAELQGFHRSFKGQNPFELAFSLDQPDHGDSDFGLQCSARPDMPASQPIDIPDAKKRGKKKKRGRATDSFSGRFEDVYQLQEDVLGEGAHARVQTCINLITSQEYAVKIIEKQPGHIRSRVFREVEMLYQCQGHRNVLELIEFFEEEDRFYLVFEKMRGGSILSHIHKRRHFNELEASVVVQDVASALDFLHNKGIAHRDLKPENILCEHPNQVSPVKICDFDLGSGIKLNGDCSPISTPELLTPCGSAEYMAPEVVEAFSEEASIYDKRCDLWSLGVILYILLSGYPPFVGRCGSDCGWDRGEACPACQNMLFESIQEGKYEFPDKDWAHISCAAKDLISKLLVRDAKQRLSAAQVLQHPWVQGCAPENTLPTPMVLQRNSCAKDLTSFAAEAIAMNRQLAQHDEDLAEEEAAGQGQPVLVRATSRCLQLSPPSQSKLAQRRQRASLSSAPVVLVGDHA
T3 sequence (P24723 whole entry): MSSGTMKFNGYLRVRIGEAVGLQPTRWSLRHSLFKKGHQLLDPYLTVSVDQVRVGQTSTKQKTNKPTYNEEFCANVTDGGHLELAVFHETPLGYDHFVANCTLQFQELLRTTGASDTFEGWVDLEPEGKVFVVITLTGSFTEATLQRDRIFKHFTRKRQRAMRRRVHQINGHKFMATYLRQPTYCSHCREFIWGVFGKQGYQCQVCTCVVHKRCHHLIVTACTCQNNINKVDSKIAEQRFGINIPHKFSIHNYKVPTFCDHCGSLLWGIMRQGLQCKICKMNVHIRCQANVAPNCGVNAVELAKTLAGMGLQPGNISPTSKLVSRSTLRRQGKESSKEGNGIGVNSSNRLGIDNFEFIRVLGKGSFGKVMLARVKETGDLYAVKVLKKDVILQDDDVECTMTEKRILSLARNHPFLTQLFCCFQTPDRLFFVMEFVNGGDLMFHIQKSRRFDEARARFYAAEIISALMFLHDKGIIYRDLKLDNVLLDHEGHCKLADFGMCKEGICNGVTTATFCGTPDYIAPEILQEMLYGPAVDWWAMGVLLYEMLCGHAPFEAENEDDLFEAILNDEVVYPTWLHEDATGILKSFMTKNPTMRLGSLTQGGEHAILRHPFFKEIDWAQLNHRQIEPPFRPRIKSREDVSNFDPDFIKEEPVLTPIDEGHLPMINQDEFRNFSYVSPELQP
T4 sequence (Q99640 whole entry): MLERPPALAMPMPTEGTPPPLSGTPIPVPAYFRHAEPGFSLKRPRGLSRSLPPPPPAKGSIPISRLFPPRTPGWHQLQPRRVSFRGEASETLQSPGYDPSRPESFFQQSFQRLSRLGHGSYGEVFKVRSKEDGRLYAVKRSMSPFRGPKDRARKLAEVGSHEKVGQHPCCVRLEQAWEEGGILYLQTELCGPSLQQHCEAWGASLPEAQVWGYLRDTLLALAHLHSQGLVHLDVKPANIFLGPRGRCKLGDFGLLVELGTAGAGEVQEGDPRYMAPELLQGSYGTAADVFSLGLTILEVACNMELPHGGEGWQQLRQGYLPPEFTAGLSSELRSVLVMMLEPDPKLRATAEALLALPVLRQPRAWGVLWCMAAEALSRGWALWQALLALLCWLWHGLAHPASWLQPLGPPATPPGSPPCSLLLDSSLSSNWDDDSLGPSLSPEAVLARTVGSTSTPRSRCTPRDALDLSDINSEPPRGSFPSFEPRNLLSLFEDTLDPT
T29 sequence (P45985 whole entry): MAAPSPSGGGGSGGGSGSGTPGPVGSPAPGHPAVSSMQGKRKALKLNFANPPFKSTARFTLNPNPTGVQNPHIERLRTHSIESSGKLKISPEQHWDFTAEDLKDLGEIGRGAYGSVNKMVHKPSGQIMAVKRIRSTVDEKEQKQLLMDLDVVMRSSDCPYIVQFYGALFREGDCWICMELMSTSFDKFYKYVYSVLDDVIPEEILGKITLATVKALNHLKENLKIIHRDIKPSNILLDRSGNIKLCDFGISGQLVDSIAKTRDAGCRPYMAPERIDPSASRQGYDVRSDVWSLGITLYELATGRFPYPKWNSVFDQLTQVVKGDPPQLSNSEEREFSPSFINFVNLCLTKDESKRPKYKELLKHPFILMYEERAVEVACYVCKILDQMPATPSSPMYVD
T30 sequence (Q9HC98 whole entry): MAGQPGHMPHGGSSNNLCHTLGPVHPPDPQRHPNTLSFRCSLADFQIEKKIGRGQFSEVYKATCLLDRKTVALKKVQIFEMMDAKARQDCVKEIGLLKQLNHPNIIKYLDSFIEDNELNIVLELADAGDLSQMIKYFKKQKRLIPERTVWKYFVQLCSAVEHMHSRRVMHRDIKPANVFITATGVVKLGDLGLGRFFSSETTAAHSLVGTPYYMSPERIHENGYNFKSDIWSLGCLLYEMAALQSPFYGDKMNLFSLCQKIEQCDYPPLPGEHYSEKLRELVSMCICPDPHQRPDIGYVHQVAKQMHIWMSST
T22 sequence (Q6P3R8 whole entry): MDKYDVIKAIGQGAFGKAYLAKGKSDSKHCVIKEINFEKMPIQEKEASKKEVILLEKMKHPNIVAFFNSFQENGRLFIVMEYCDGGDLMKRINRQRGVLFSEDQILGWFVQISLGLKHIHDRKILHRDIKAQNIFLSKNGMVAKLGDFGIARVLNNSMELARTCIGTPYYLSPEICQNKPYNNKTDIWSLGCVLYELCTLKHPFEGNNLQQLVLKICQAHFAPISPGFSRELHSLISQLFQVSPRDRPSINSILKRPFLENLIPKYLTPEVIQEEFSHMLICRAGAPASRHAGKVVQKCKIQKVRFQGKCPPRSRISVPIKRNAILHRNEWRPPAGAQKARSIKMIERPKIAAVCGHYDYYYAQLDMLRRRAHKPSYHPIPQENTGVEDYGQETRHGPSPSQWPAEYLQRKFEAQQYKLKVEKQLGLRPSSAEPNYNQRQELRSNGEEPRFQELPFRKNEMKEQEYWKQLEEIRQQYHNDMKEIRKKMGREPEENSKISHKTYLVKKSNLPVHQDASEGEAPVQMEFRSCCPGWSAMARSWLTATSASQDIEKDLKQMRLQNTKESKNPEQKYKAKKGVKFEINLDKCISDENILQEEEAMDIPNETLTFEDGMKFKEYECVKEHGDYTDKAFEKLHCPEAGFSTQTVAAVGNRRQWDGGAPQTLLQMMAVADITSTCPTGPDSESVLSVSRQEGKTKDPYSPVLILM
T25 sequence (P36507 whole entry): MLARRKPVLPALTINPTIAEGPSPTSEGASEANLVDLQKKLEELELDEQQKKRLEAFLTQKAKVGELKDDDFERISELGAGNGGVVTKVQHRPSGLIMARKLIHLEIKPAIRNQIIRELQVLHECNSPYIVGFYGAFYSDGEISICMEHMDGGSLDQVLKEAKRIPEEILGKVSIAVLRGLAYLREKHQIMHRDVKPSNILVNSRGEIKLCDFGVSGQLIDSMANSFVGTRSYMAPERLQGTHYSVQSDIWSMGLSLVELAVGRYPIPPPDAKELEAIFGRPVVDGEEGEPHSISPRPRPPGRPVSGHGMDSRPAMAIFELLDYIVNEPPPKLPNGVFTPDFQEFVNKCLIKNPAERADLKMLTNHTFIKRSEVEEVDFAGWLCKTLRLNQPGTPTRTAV

Q: Which results are given for CCCCN1CCN(C(=N)c2cccc(NC(=O)Nc3ccc(S(=O)(=O)NCc4ccc(S(N)(=O)=O)cc4)cc3)c2)CC1 [SC81458, 4-(3-(3-((4-butylpiperazin-1-yl)(imino)methyl)phenyl)ureido)-N-(4-sulfamoylbenzyl) benzenesulfonamide]?
A: remaining binding at 10 µM (ABL1): 100%; remaining binding at 10 µM (FGFR2): 100%; remaining binding at 10 µM (PRKCH): 92%; remaining binding at 10 µM (PKMYT1): 90%; remaining binding at 10 µM (CIT): 94%; remaining binding at 10 µM (CSNK2a2): 78%; remaining binding at 10 µM (KIT(V559D, V654A)): 100%; remaining binding at 10 µM (PCTk3): 98%; remaining binding at 10 µM [1]: 100%; remaining binding at 10 µM (TESK1): 100%; remaining binding at 10 µM (FGFR1): 100%; remaining binding at 10 µM (ABL1(Y253F)): 92%; remaining binding at 10 µM (PIK3CA(Q546K)): 100%; remaining binding at 10 µM (LKB1): 88%; remaining binding at 10 µM (INSRR): 95%; remaining binding at 10 µM (RIPK4): 74%; remaining binding at 10 µM (ERK4): 100%; remaining binding at 10 µM [2]: 87%; remaining binding at 10 µM (DRAK2): 88%; remaining binding at 10 µM (MKNK2): 100%; remaining binding at 10 µM (PRKD1): 65%; remaining binding at 10 µM (NEK5): 100%; remaining binding at 10 µM (TRKc): 100%; remaining binding at 10 µM (LIMK2): 100%; remaining binding at 10 µM (MEK2): 100%; remaining binding at 10 µM (PRP4): 100%; remaining binding at 10 µM (p38-alpha): 88%; remaining binding at 10 µM (CHEK1): 98%; remaining binding at 10 µM (MEK4): 100%; remaining binding at 10 µM (NEK6): 100%; remaining binding at 10 µM (ADCK3): 100%; remaining binding at 10 µM (CDKL2): 100%; remaining binding at 10 µM (PDGFRa): 87%
